Experimental data taken from patent publication US4912116A, “Propiophenone derivatives for treatment of pollakiuria (frequency urination)” (Hokuriku Pharmaceutical Co., Ltd., priority 1986, dated 1990).

What was measured:
[1] = system: micturition reflex (rhythmic bladder contractions); test: Inhibition of micturition reflex (rhythmic bladder contractions) in anesthetized rats; format: in vivo, male wister rats; conditions: for Disappearance time (of bladder contractions): i.v., 3 rats, mean ± S.E.
Description: (§1) statistical analysis: Each data of Experiment 1-6 represents the mean±S.E. statistical analysis of the data was performed using student's t-test.
According to the method described by Morikawa et al. (Folia phamacol. japon.: 88,355 (1986), male wister rats weighing about 300 g (in case of intraduodenal administration, fasted 18-20 hours) were anesthetized with urethane (500 mg/kg, i.p.) and alpha-chloralose (50 mg/kg, i.p.), and fixed on their back.
Then, through a midline incision of the abdomen, the urinary bladder was exposed, provided with a small incision, and a balloon (capacity about 1 ml) was inserted into the bladder dome.
(§2) The balloon was connected to a pressure transducer and variations of inside pressure were recorded on a recorder.
Micturition reflex was elicited by elevating balloon pressure 10-20 cm H2 O.
In case of intravenous administration, the drug was administrated through a cannula inserted into the left jugular vein and, in case of intraduodenum administration, the drug was administrated through a cannula into the duodenum from outside the stomach.
In case of intravenous administration, the drug was evaluated by the dissappearance time of bladder contractions caused by micturition reflex.
In case of intraduodenal administration, the sum total of amplitude of bladder contractions caused by the micturition reflex was calculated during each five minutes at 5 min. before and 15, 30, 45, and 60 min. after the administration.
Then, the maximum inhibition rate was determined from one of the above judgment times compared with that of before the administration, and the dose which inhibited 50 percent of the sum total of amplitude of bladder contractions during five minutes (ED 50 value), was calculated from the graph.

[2] = system: micturition reflex (rhythmic bladder contractions); test: Inhibition of micturition reflex (rhythmic bladder contractions) in unanesthetized, gallamine-immobilized rats; format: in vivo, Male Wister rats; conditions: for Disappearance time (of bladder contractions): i.v., 4 rats, mean ± S.E., saline 9.0 ± 1.8; for Inhibition Rate: i.d., 15 min after administration, 0.5% CMC 11.9 ± 7.9
Description: as §1
Male Wister rats weighing about 300 g (in case of intraduodenal administration, fasted more than 15 hours) were anesthetized with ether and immobilized with gallamine (5 mg/kg, i.v.) and fixed on their back. As soon as that procedure was finished anesthesia was discontinuted.
In the experiment, infusion of gallamine, 13 mg/kg/hr, i.v. (in case of intraduodenum administration, 10 mg/kg/hr, i.v.) was continuted, and artificial respiration was performed (90 times/min, 3 ml air/time).
Then, through a midline incision of the abdomen, the urinary bladder was exposed; a small incision provided therein, and a balloon (capacity about 1 ml) was inserted into the bladder dome.
as §2
Micturition reflex was elicited by raising the balloon pressure 10-20 cm H2 O.
In case of intravenous administration, the drug was administrated through a cannula inserted into the left jugular vein, and in case of intraduodenal administration the drug was administrated through a cannula inserted into the duodenum from outside the stomach.
In case of intravenous administration, the effect of the drug was represented by the disappearance time of bladder contractions caused by micturition reflex.
In case of intraduodenal administration, the sum total of amplitude of bladder contractions caused by micturition reflex was calculated during each five minutes at 5 min before and 15, 30, 45, 60, 75, 90, 105 and 120 min after the administration.
Then, inhibition rate was calculated by the sum total of amplitude of bladder contractions at each point compared with that before the administration.

[3] = system: cystometrogram (time to micturition); test: Effects on the cystometrogram (Dog); format: in vivo, Mongrel adult dogs; conditions: i.v., dogs, mean ± S.E., saline 6.0 ± 13.8
Description: as §1
Mongrel adult dogs weighing about 10 kg were anesthetized with thiopental (20 mg/kg, i.v.) and immobilized with gallamine (2 mg/kg, i.v.), and fixed on their back.
In the experiment, infusion of pentobarbital (3 mg/kg/hr, i.v.) and gallamine (3 mg/kg i.v.) were continuted, and artifical respiration was performed (20 times/min, 20 ml air/kg).
After midline incision of the abdomen, the ureters were ligated and polyethylene tubes were inserted into the kidney side and the urinary bladder side. Urine was led out of the body from the kidney side, and warm saline was infused using a continuous infusion pump from the urinary bladder side.
Then, a catheter was inserted into the bladder dome and connected to a pressure transducer. Intravesical pressure was recorded on a recorder.
The infusion rate of saline was changed (6-35 ml/min) so as to induce the time to micturition from the saline infusion (time to micturition) at about five minutes.
The drug was administered (through a cannula inserted into the right femoral vein) at the second minute before the last time to micturition, and the delayed time of micturition was evaluated.

[4] = system: cystometrogram (time to micturition); test: Effects on the cystometrogram (in anesthetized rat); format: in vivo, Male Wister rats; conditions: i.v., 6 rats, mean ± S.E., saline -6.0 ± 49.8
Description: as §1
Male Wister rats weighing about 300 g were anesthetized with urethane (500 mg/kg, i.p.) and α-chloralose (50 mg/kg, i.p.) and fixed on their back.
Then, through a midline incision of the abdomen, the urinary bladder was exposed, provided with a small incision, a polyethylene tube was inserted into the bladder dome, and ureters were cut.
Then, through the polyethylene tube, saline was infused using a continuous infusion pump. On the other hand, the polyethylene tube was connected to a pressure transducer. Intravesical pressure was recorded on a recorder.
The drug was administrated through a cannula inserted into the left jugular vein at 30 sec before saline infusion. Effect of the drug was represented by delayed time to micturition.

[5] = system: cystometrogram (time to micturition); test: Effect on the cystometrogram (pollakiuria model rats induced by hypogastric nerve transection); format: in vivo, Male Wister rats; conditions: i.v., mean ± S.E., saline -6.0 ± 31.8
Description: as §1
Male Wister rats weighing 300 g were incised midline of the abdomen, and bilateral hypogastric nerves were transected.
Two days after hypogastric nerve transection, the rats were anesthetized with urethane (500 mg/kg, i.p.) and alpha-chloralose (50 mg/kg, i.p.) and fixed on their back.
Then, through a midline incision of the abdomen, the urinary bladder was exposed, provided with a small incision, a polyethylene tube inserted, and ureters were cut.
Through the polyethylene tube, saline was infused using a continuous infusion pump. On the other hand, the polyethylene tube was connected to a pressure transducer. Intravesical pressure was recorded on a recorder.
The drug was administrated through a cannula inserted into the left jugular vein at 30 sec before saline infusion.
Effect of drug was represented as delayed time to micturition.

## CCc1ccc(C(=O)C(C)CN2CCCC2)cc1 (stereo not drawn) [Compound 1]
[1]; 1 mg/kg
  Disappearance time (of bladder contractions): 1.1 ± 1.1 min
[1]; 2 mg/kg
  Disappearance time (of bladder contractions): 2.3 ± 0.5 min
[1]; 4 mg/kg
  Disappearance time (of bladder contractions): 7.1 ± 2.8 min
[1]; Rattus norvegicus, iv, read-out: ED3 (dose at which rhythmic bladder contractions disappeared in three (3) minutes)
  ED (3 min disappearance of contractions): 2.2 mg/kg
[1]; Rattus norvegicus, intraduodenal administration, read-out: ED50 (dose which inhibited 50 percent of the sum total of amplitude of bladder contractions during five minutes)
  ED50: 14.3 mg/kg
[2]; 4 mg/kg
  Disappearance time (of bladder contractions): 52.8 ± 23.4 min
[2]; 8 mg/kg, * p < 0.05 vs control
  Disappearance time (of bladder contractions): 249.0 ± 45.0 min
[2]; 12.5 mg/kg, * p < 0.05
  Inhibition Rate: 36.1 ± 4.4%
[2]; 25 mg/kg, ** p < 0.01
  Inhibition Rate: 53.8 ± 6.9%
[2]; 50 mg/kg, ** p < 0.01
  Inhibition Rate: 87.9 ± 5.1%
[3]; 1 mg/kg
  Delayed time of micturition: 13.2 ± 21.0 s
[3]; 3 mg/kg, * p < 0.05 vs last time to micturition
  Delayed time of micturition: 50.4 ± 15.0 s
[4]; 1 mg/kg
  Delayed time of micturition: 52.8 ± 50.4 s
[4]; 4 mg/kg
  Delayed time of micturition: 102.0 ± 32.4 s
[4]; 8 mg/kg, ** P < 0.01 vs control
  Delayed time of micturition: 200.4 ± 60.6 s
[5]; 1 mg/kg, 5 rats
  Delayed time of micturition: 91.8 ± 47.4 s
[5]; 4 mg/kg, 5 rats
  Delayed time of micturition: 179.4 ± 111.0 s
[5]; 8 mg/kg, 6 rats, ** P < 0.01 vs control
  Delayed time of micturition: 449.4 ± 65.4 s
